The results in this text go back to publication PMC8402917 (Viruses, 2021).

For the assay, the target named is T1, SARS-CoV-2 3CLpro (3CL protease, main protease) (Severe acute respiratory syndrome coronavirus 2, UniProt P0DTD1).
T1 construct: gene rep
The experiment in a line: biochemical.

For `CC1=C(/C=C/C(C)=C/C=C/C(C)=C/C(=O)O)C(C)(C)CCC1` [all-trans retinoic acid], the IC50 amounted to 24.7 ± 1.65 µM.
